Assay results reported in patent US8129355B2, “Ketone ligands for modulating the expression of exogenous genes via an ecdysone receptor complex” (priority 2002, dated 2012).

Target: T1, GAL4 DBD (1-147)-CfEcR(DEF)/VP16AD-βRXREF-LmUSPEF (Choristoneura fumiferana, UniProt O77240)
T1 sequence (O77240 191-513): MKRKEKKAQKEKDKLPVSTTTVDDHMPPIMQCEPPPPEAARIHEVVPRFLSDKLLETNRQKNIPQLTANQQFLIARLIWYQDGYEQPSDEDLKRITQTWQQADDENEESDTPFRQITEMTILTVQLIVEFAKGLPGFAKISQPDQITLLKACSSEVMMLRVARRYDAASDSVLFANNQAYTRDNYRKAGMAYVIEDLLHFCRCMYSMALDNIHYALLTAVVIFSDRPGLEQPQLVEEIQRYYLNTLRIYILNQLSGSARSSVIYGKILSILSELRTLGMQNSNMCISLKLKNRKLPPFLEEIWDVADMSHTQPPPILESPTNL
T1 sequence (P28702 296-455 partner limits assumed): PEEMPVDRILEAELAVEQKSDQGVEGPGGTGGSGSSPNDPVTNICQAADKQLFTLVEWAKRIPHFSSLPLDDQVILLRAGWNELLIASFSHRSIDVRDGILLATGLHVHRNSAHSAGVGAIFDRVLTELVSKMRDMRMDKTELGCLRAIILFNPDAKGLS
Experiment: 27-63 assay: luciferase reporter gene expression in stable CHO cell clone 27-63
Conditions: for 27-63 Rel Max FI: maximum fold induction at any concentration relative to that of GS-E ligand; for CC50: read-out: 27-63 LC50, average, dose response, three-parameter logistic model
In short: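 CHO clone stably expressing GAL4 DBD-CfEcR(DEF) and VP16AD-HsRXRβ/LmUSP EF chimera plus a 5XGAL4RE-luciferase reporter; ligands given at 8 concentrations (33 μM to 0.01 μM), luminescence read 48 h after treatment. Fold induction versus DMSO cells; BC50 from three-parameter logistic fit.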

Row | Structure (SMILES) | 27-63 Rel Max FI | CC50 [nM] | fold induction at 33 µM (CHO, read-out: Fold Induction Average, 27-63 Assay (33 μM)) | Fold Induction Average, 27-63 Assay (33 μM) (single dose 33 μM, RLU ligand treated / RLU DMSO treated cells)
1 | CCc1c(OC)cccc1C(=O)NC1(C(=O)c2cc(C)cc(C)c2)CCCCC1 [Example 143] | 0.91 | 1500 |  | 
2 | CCc1c(OC)cccc1C(=O)NC1(C(=O)c2cc(C)cc(C)c2)CCCC1 [Example 144] | 0.93 | 1520 |  | 
3 | COc1cccc(C(=O)NC2(C(=O)c3cc(C)cc(C)c3)CCN(C(C)=O)CC2)c1C [Example 149] |  |  | 1 | 
4 | CCNC(=O)N1CCC(NC(=O)c2cccc(OC)c2C)(C(=O)c2cc(C)cc(C)c2)CC1 [Example 157] |  |  |  | 1
